SMILES strings stand for the structures. Read-outs that look alike come from different tables or passages of the source.

For experiment [1] the following is noted: early phase trials, cited from earlier work.
Experiment [2] concerns IRAK1 phosphorylation in MDS/AML cells. As to the kind of experiment: Immunoblotting for phospho-IRAK1. It is filed as cell-based, human. The note with it: MDSL cells and patient-derived AML(1714), 10 μM, 24 hours. (A western blot detects proteins with antibodies after separation by electrophoresis.)
In experiment [3] the test system is NF-kB activity upon IL-1β stimulation (IL-1R) in THP1 NF-kB reporter cells. In words: THP1 NF-kB reporter assay, IL-1β stimulation. It is filed as cell-based, human. The note with it: for IC50: Homo sapiens. In general terms: A reporter such as luciferase makes a cellular process visible.
The next experiment deals with THP1 and MDSL cells. In words: Growth curves with IRAK4 inhibitors. The format is cell-based, human. As to conditions: IRAK1KO versus WT MDSL (10 μM) and THP1 (20 μM).

Turning to `Cc1cc(-c2nc(C(=O)Nc3cc4oc(N5CCOCC5)nc4nc3N3CC[C@@H](O)C3)co2)ccn1` [CA-4948, emavusertib], in experiment [1] (HR-MDS and AML patients), the “Complete or partial response rates” value is approximately 40%. For the same compound, in experiment [1], the “AML patients with spliceosome mutations reaching CR or CRh” value is on record as 40% and the “HR-MDS patients achieving a CR” value is reported as 57%. The IRAK1 phosphorylation entry in experiment [2] is given as “increased IRAK1 phosphorylation”.
As for `CC[C@@H]1[C@H](F)C(=O)N[C@@H]1COc1nccc2cc(C(N)=O)c(OC)cc12` [PF-06650833, Zimlovisertib], the IC50 stood at 5.7 nM in experiment [3] (THP-1, THP1 NF-kB reporter cells, read-out: IC50 vs. IL-1β (NF-kB activation)) and 678 nM in experiment [3] (THP-1, Table 1, unit nM, read-out: THP-1 NFkB IL1B IC50). For the same compound, in experiment [3] (THP1 NF-kB reporter cells, IL-1β), the “Span (extent of suppression of signaling through the IL-1R)” value worked out at 75%. The “Suppression of NF-kB signaling through the IL-1 receptor” value in experiment [3] (THP1 NF-kB reporter cells, result in words) was “do not fully suppress”. In experiment [3] (Table 1, log of IL1B IC50), the “LOG (IL1B)” value stood at 2.83. In addition, the “Sensitivity of IRAK1KO MDS/AML cells (growth curves)” value in the experiment on THP1 and MDSL cells is listed as “A similar effect was also observed”.

As a reminder, the IC50 is the concentration needed to halve the response being measured.

The values above are taken from patent US20260034112A1, “MULTI-CYCLIC IRAK1 AND IRAK4 INHIBITING COMPOUNDS AND USES THEREOF” (CHILDREN'S HOSPITAL MEDICAL CENTER, priority 2022, published 2026).
